Measurements as given in patent publication US4481201A, “Pharmaceutical composition containing N,N^3 -di-(β-bromopropionyl)-N^1,N^2 -dispirotripiperazinium dichloride” (Vsesojuzny Nauchno-Issledovatelsky Khimoko-Farmasevtichesky …, priority 1981, dated 1984).
Like-named read-outs stand apart in the source and are kept apart here.

Columns and labels:
[1] = test system: sarcoma 536; test: Growth of graft sarcoma 536 in rats; assay type: in vivo; details: rats
Excerpt: (§1) The antitumor activity has been studied on white rats weighing 110-130 g, as well as on white noninbred and inbred mice weighing 17-21 g with ligated tumors. The treatment is started 5-7 days transplanting of solid tumors and the following day after the transplanting of leukotic strains. Use has been made of the following transplantable strains of the tumors:
(§2) (1) rats: Ienssen's sarcoma, sarcoma 45, sarcoma M-1, sarcoma 536;
(§3) The compounds of the general formula (I), wherein X represents Cl^- (compound 1), Br^- (compound 2) are well-soluble in an isotonic solution of sodium chloride and they are administered intraperitoneally. The doses of the compounds have been calculated in mg per kg of the animal bodyweight.

[2] = Growth of graft sarcoma 536 in rats; assay type: in vivo; details: rat, in vivo, ip, rats with sarcoma 536, repeated intraperitoneal administration; read-out: Maximum tolerable dose (MTD)
Excerpt: as §1, §2, §3

[3] = Solubility; assay type: physicochemical
Description: as §3
To a mixture of 3 g of N^1,N^2 -dispirotripiperazinium dichloride, 1.5 g of lithium hydroxide, 1 ml of water and 10 ml of ether a solution of 5.2 g of β-bromopropionic acid chlorid in 5 ml of ether is added under vigorous stirring and at a temperature of 5° to 10° C. The reaction mass is stirred for 2 hours at the temperature of 15° C. The residue is filtered off, dissolved in 10 ml of water; the resulting aqueous solution is poured in 100 ml of methanol.

[4] = test system: sarcoma AK; test: Growth of graft sarcoma AK in mice; assay type: in vivo, noninbred white mice; details: mice
Excerpt: as §1
(§4) (2) noninbred white mice: sarcoma 180, sarcoma AK, sarcoma 37, carcinoma HK;
as §3

[5] = Growth of graft sarcoma AK in mice; assay type: in vivo, noninbred white mice; details: mouse, in vivo, ip; mice with sarcoma AK, repeated intraperitoneal administration; read-out: Maximum tolerable dose (MTD)
Excerpt: as §1, §4, §3

[6] = Withdrawal of radioactivity from the rats' organism; assay type: in vivo; parameters: concentration or dose not given beside the values; details: C^14-labeled
Excerpt: (§5) In the case of administration of the preparation according to the present invention labeled with C^14, a higher level of radioactivity in blood is observed than in the case of prospidin labeled with C^14. A higher rate of accumulation of the preparation according to the present invention as compared to prospidin is observed in larynx, windpipe, bronchi, bone marrow, tumor and thyroid gland. The preparation according to the present invention labeled with C^14 is withdrawn from the organism within 24 hours after the intravenous administration mainly with urine, while C^14 --labeled prospidin is retained in the organism for a longer period.

[7] = test system: transplantable leukemia; test: Activity relative to leukoses of inbred mice (overall); assay type: in vivo
Excerpt: (2) activity of the compounds relative to leukoses of inbred mice;
as §1
(§6) (3) inbred mice: leukemia La, leukemia L1210 and P-388.
(§7) The activity of compounds relative to leukosis has been assessed by the life span (It) of treated animals as compared to the control ones. It --index of suppression of leukosis development is calculated by the formula: [formula]

[8] = Distribution of C^14-labeled preparation within organs and tissues of rats with sarcoma M-1; assay type: in vivo; details: rats with sarcoma M-1, intravenous
Excerpt: Furthermore, the particular distribution of the preparation according to the present invention within organs and tissues should also be noted.
as §5

[9] = test system: leukemia L1210; test: Life span of mice with transplantable leukemia L1210; assay type: in vivo, inbred mice
Excerpt: as §1, §6, §7

[10] = 50 mg/kg intraperitoneally, 7 injections
[11] = 70 mg/kg intraperitoneally, 6 injections
[12] = 75 mg/kg intraperitoneally, 8 injections
[13] = 125 mg/kg intraperitoneally, 6 injections
[14] = 24 hours after intravenous administration
[15] = mice with transplantable leukemia L1210

O=C(CCBr)N1CC[N+]2(CC1)CC[N+]1(CCN(C(=O)CCBr)CC1)CC2 [Compound 1, N,N^3 -di-(β-bromopropionyl)-N^1,N^2 -dispirotripiperazinium dichloride]
tumor growth suppression class, Sarcoma 536 [1]: ++ (tumor growth suppression by 80-95%)
Change in the animal body weight, test [1, 10]: -15 g
It, % tumor growth suppression index [1, 10]: +45%
Change in the animal body weight, test [1, 11]: -22 g
It, % tumor growth suppression index [1, 11]: +55%
Change in the animal body weight, test ([1]; 140 mg/kg intraperitoneally (MTD), 6 injections): -32 g
It, % tumor growth suppression index ([1]; 140 mg/kg intraperitoneally (MTD), 6 injections, listed as preparation of the invention, 140 mg/kg): 78%
MTD [2]: 140 mg/kg
solubility in an isotonic solution of sodium chloride [3]: well-soluble
solubility in organic solvents [3]: substantially insoluble
solubility in water [3]: well soluble
Change in the animal body weight, test [4, 12]: -3 g
It, % tumor growth suppression index [4, 12]: +81%
Change in the animal body weight, test [4, 13]: -1 g
It, % tumor growth suppression index [4, 13]: +62%
It, % tumor growth suppression index ([4]; 200 mg/kg intraperitoneally, 5 injections): +64%
Change in the animal body weight, test ([4]; 250 mg/kg intraperitoneally (MTD), 6 injections): -3 g
MTD [5]: 250 mg/kg
Withdrawal of radioactivity, Feces [6, 14]: 1.6%
Withdrawal of radioactivity, Total [6, 14]: 99.9%
Withdrawal of radioactivity, Urina [6, 14]: 98.3%
Withdrawal of radioactivity, Urina ([6]; within 3 hours after intravenous administration): 80.7%
effect on transplantable leukemia in mice [7]: clearly pronounced antileukotic effect
effect on transplantable leukemia in mice ([7]; listed as preparation according to the present invention): pronounced antileucotic effect
Coefficient of differential accumulation, Blood ([8]; 15 min): 1.43
Coefficient of differential accumulation, Bone marrow ([8]; 15 min): 3.84
Coefficient of differential accumulation, Bronchi ([8]; 15 min): 3.4
Coefficient of differential accumulation, Hypophysis ([8]; 15 min): 6.3
Coefficient of differential accumulation, Kidneys ([8]; 15 min): 10.4
Coefficient of differential accumulation, Larynx ([8]; 15 min): 4.15
Coefficient of differential accumulation, Liver ([8]; 15 min): 0.94
Coefficient of differential accumulation, Lungs ([8]; 15 min): 0.95
Coefficient of differential accumulation, Lymphonodes ([8]; 15 min): 0.69
Coefficient of differential accumulation, Spleen ([8]; 15 min): 0.66
Coefficient of differential accumulation, Thymus gland ([8]; 15 min): 1.67
Coefficient of differential accumulation, Tumor ([8]; 15 min): 1.76
Coefficient of differential accumulation, Tyroid gland ([8]; 15 min): 3.5
Coefficient of differential accumulation, Windpipe ([8]; 15 min): 7.29
Coefficient of differential accumulation, Blood ([8]; 30 min): 0.91
Coefficient of differential accumulation, Bone marrow ([8]; 30 min): 6.67
Coefficient of differential accumulation, Bronchi ([8]; 30 min): 2.83
Coefficient of differential accumulation, Hypophysis ([8]; 30 min): 6.67
Coefficient of differential accumulation, Kidneys ([8]; 30 min): 5.4
Coefficient of differential accumulation, Larynx ([8]; 30 min): 3.43
Coefficient of differential accumulation, Liver ([8]; 30 min): 0.69
Coefficient of differential accumulation, Lungs ([8]; 30 min): 0.71
Coefficient of differential accumulation, Lymphonodes ([8]; 30 min): 0.11
Coefficient of differential accumulation, Spleen ([8]; 30 min): 0.33
Coefficient of differential accumulation, Thymus gland ([8]; 30 min): 0.71
Coefficient of differential accumulation, Tumor ([8]; 30 min): 0.91
Coefficient of differential accumulation, Tyroid gland ([8]; 30 min): 2.73
Coefficient of differential accumulation, Windpipe ([8]; 30 min): 4.62
Coefficient of differential accumulation, Blood ([8]; 60 min): 0.47
Coefficient of differential accumulation, Bone marrow ([8]; 60 min): 3.78
Coefficient of differential accumulation, Bronchi ([8]; 60 min): 1.7
Coefficient of differential accumulation, Hypophysis ([8]; 60 min): 5.13
Coefficient of differential accumulation, Kidneys ([8]; 60 min): 2.6
Coefficient of differential accumulation, Larynx ([8]; 60 min): 2.0
Coefficient of differential accumulation, Liver ([8]; 60 min): 0.76
Coefficient of differential accumulation, Lungs ([8]; 60 min): 0.86
Coefficient of differential accumulation, Lymphonodes ([8]; 60 min): 0.69
Coefficient of differential accumulation, Spleen ([8]; 60 min): 0.32
Coefficient of differential accumulation, Thymus gland ([8]; 60 min): 0.54
Coefficient of differential accumulation, Tumor ([8]; 60 min): 0.57
Coefficient of differential accumulation, Tyroid gland ([8]; 60 min): 1.43
Coefficient of differential accumulation, Windpipe ([8]; 60 min): 4.64
Coefficient of differential accumulation, Blood ([8]; 24 hours): 0.05
Coefficient of differential accumulation, Bone marrow ([8]; 24 hours): 0.76
Coefficient of differential accumulation, Bronchi ([8]; 24 hours): 0.24
Coefficient of differential accumulation, Hypophysis ([8]; 24 hours): 4.12
Coefficient of differential accumulation, Kidneys ([8]; 24 hours): 0.53
Coefficient of differential accumulation, Larynx ([8]; 24 hours): 0.58
Coefficient of differential accumulation, Liver ([8]; 24 hours): 0.32
Coefficient of differential accumulation, Lungs ([8]; 24 hours): 0.26
Coefficient of differential accumulation, Lymphonodes ([8]; 24 hours): 0.2
Coefficient of differential accumulation, Spleen ([8]; 24 hours): 0.11
Coefficient of differential accumulation, Thymus gland ([8]; 24 hours): 0.2
Coefficient of differential accumulation, Tumor ([8]; 24 hours): 0.26
Coefficient of differential accumulation, Tyroid gland ([8]; 24 hours): 0.48
Coefficient of differential accumulation, Windpipe ([8]; 24 hours): 0.6
extension of life span as compared to the control, factor ([9]; leukemia L1210): 1.03
It, % index of suppression of leukosis development [9, 15]: 38%
Life span [9, 15]: 10.6 ± 2 days
